Experimental data: US20240317791A1 (priority 2021, published 2024)
In brackets after ≈: the same amount, converted by molar mass. Where two headings read alike, the source gives them in different places.

Key:
Microsporum spp. = settings: 2 strains of Microsporum spp; cited from earlier work
Penicillium spp. = settings: 5 strains of Penicillium spp.; cited from earlier work
Candida auris = test: MIC determination against clinical isolates of Candida auris (CLSI M27, 4th edition); format: cell-based; settings: Candidozyma auris, read-out: MIC values
Excerpt: (§1) MIC: Minimum Inhibitory Concentration (MIC) is defined as the lowest concentration of an antimicrobial ingredient that is bacteriostatic.
(§2) Testing has been performed in triplicates for each isolate.

Sporothrix schenkii = settings: 1 strain of Sporothrix schenkii; cited from earlier work
[1] = rats, single intravenous administration; amcipatricin diascorbate 1.25 mg/kg, amphotericin B 1 mg/kg; cited from earlier work
Aspergillus spp. = settings: 13 strains of Aspergillus spp.; cited from earlier work
Trichophyton spp. = settings: 7 strains of Trichophyton spp.; cited from earlier work
Rhizopus oryzae [2] = settings: 4 strains of Rhizopus oryzae; cited from earlier work
Mucor circinelloides = test: MIC determination against ATCC and clinical isolates of the order Mucorales (CLSI M27, 4th edition); format: cell-based
Excerpt: as §1, §2

Rhizopus oryzae [3] = test: MIC determination against clinical isolates of the order Mucorales (CLSI M27, 4th edition); format: cell-based; settings: Rhizopus arrhizus, strain 2086, clinical strain
Excerpt: as §1, §2

Rhizopus microsporus = test: as above; format: cell-based
Excerpt: as §1, §2

[4] = strain I.2 (No 2), clade I/India
[5] = strain I.3 (No 3), clade I/India
[6] = strain I.4 (No 4), clade I/India
[7] = strain II.1 (No 5), clade II/Japan
[8] = strain II.2 (No 1), clade II/India
[9] = strain III.7 (No 12), clade III/Switzerland
[10] = strain III.8 (No 13), clade III/Israel
[11] = strain III.9 (No 14), clade III/Israel
[12] = strain IV.1 (No 15), clade IV/Colombia
[13] = strain IV.10 (No 7), clade IV/Israel
[14] = strain IV.11 (No 8), clade IV/Israel
[15] = strain IV.12 (No 9), clade IV/Israel
[16] = strain IV.13 (No 10), clade IV/Israel
[17] = strain IV.14 (No 11), clade IV/Israel
[18] = strain IV.2 (No 16), clade IV/Colombia
[19] = strain IV.3 (No 17), clade IV/Colombia
[20] = strain IV.4 (No 18), clade IV/Colombia
[21] = strain IV.5 (No 19), clade IV/Colombia
[22] = strain IV.6 (No 20), clade IV/Colombia
[23] = strain IV.7 (No 21), clade IV/Colombia
[24] = strain IV.8 (No 22), clade IV/Colombia
[25] = strain IV.9 (No 6), clade IV/Israel

Compound	MIC (Candida auris; [4])	MIC (Candida auris; [5])	MIC (Candida auris; [6])	MIC (Candida auris; [7])	MIC (Candida auris; [8])	MIC (Candida auris; [9])	MIC (Candida auris; [10])	MIC (Candida auris; [11])	MIC (Candida auris; [12])	MIC (Candida auris; [13])	MIC (Candida auris; [14])	MIC (Candida auris; [15])	MIC (Candida auris; [16])	MIC (Candida auris; [17])	MIC (Candida auris; [18])	MIC (Candida auris; [19])	MIC (Candida auris; [20])	MIC (Candida auris; [21])	MIC (Candida auris; [22])	MIC (Candida auris; [23])	further results
C[C@@H]1[C@H](O)[C@@H](C)/C=C/C=C/C=C/C=C/C=C/C=C/C=C/[C@H](O[C@@H]2O[C@H](C)[C@@H](O)[C@H](N)[C@@H]2O)C[C@@H]2O[C@](O)(C[C@@H](O)C[C@@H](O)[C@H](O)CC[C@@H](O)C[C@@H](O)CC(=O)O[C@H]1C)C[C@H](O)[C@H]2C(=O)O [Amphotericin B]	1 µg/mL (≈ 1.08 µM)	1 µg/mL (≈ 1.08 µM)	1 µg/mL (≈ 1.08 µM)	0.5 µg/mL (≈ 0.541 µM)	0.25 µg/mL (≈ 0.271 µM)	0.5 µg/mL (≈ 0.541 µM)	0.5 µg/mL (≈ 0.541 µM)	1 µg/mL (≈ 1.08 µM)	2 µg/mL (≈ 2.16 µM)	0.25 µg/mL (≈ 0.271 µM)	0.5 µg/mL (≈ 0.541 µM)	0.5 µg/mL (≈ 0.541 µM)	1 µg/mL (≈ 1.08 µM)	0.5 µg/mL (≈ 0.541 µM)	2 µg/mL (≈ 2.16 µM)	2 µg/mL (≈ 2.16 µM)	1 µg/mL (≈ 1.08 µM)	1 µg/mL (≈ 1.08 µM)	1 µg/mL (≈ 1.08 µM)	1 µg/mL (≈ 1.08 µM)	geometric means of the minimum fungicidal concentration values compared to amcipatricin diascorbate (Microsporum spp.): lower; geometric means of the minimum fungicidal concentrations (Penicillium spp.): about 12 μg/mL; MIC (Candida auris; [24]): 1 µg/mL (≈ 1.08 µM); MIC (Candida auris; [25]): 0.5 µg/mL (≈ 0.541 µM); MFC (Sporothrix schenkii): 19.2 µg/mL (≈ 20.8 µM); area under the curve to infinity (AUC(0-∞)) [1]: 10330 ng·h/mL; elimination half-lives [1]: 18.15 h; geometric means of the minimum fungicidal concentrations (Aspergillus spp.): 12.53 µg/mL; geometric means of the minimum fungicidal concentration values compared to amcipatricin diascorbate (Trichophyton spp.): lower; geometric means of the minimum fungicidal concentration values compared to amcipatricin diascorbate (Rhizopus oryzae [2]): lower; MIC (Mucor circinelloides; ATCC24905, strain ATCC 24905, ATCC strain): 0.25 µg/mL (≈ 0.271 µM); MIC (Mucor circinelloides; strain 2109, clinical strain): 0.5 µg/mL (≈ 0.541 µM); MIC (Mucor circinelloides; strain 2707, clinical strain): 0.25 µg/mL (≈ 0.271 µM); MIC (Mucor circinelloides; strain 4280, clinical strain): 1 µg/mL (≈ 1.08 µM); MIC (Rhizopus oryzae [3]): 1 µg/mL (≈ 1.08 µM); MIC (Rhizopus microsporus; strain 3315, clinical strain): 0.25 µg/mL (≈ 0.271 µM); MIC (Rhizopus microsporus; strain 3435, clinical strain): 0.5 µg/mL (≈ 0.541 µM)
OC(Cn1cncn1)(Cn1cncn1)c1ccc(F)cc1F [Fluconazole]	1020 µg/mL (≈ 3340 µM)	1020 µg/mL (≈ 3340 µM)	1020 µg/mL (≈ 3340 µM)	4 µg/mL (≈ 13.1 µM)	32 µg/mL (≈ 104 µM)	1020 µg/mL (≈ 3340 µM)	512 µg/mL (≈ 1670 µM)	1020 µg/mL (≈ 3340 µM)	4 µg/mL (≈ 13.1 µM)	32 µg/mL (≈ 104 µM)	32 µg/mL (≈ 104 µM)	32 µg/mL (≈ 104 µM)	32 µg/mL (≈ 104 µM)	32 µg/mL (≈ 104 µM)	128 µg/mL (≈ 418 µM)	128 µg/mL (≈ 418 µM)	128 µg/mL (≈ 418 µM)	128 µg/mL (≈ 418 µM)	128 µg/mL (≈ 418 µM)	1020 µg/mL (≈ 3340 µM)	MIC (Candida auris; [24]): 1020 µg/mL (≈ 3340 µM); MIC (Candida auris; [25]): 16 µg/mL (≈ 52.2 µM)
